Results as given in patent publication US20110045083A1, “USE LARCH WOOD FOR TREATING INFLAMMATION” (priority 2007, published 2011).
“And” between values parts separate entries of the source, which are not always exact repeats. Equal values may be shown once. Read-outs that look alike come from different tables or passages of the source.

Experiments:
IL-6 and TNF-α = assay: Sow feeding trial, Postpartum Dysgalactia Syndrome, inflammation markers; type: in vivo; conditions: sows, relative to untreated animals at allocation day
Procedure: Principle: Evaluation of the antiinflammatory activity of Larch sawdust in order to reduce the prevalence of Postpartum Dysgalactia Syndrome in sows under field conditions. IL-6 and TNF-α were analyzed as markers of inflammatory stress.
Materials and Methods: Sows with no clinical signs of disease were used from a farm of approximately 900 sows under production. Trial animals were sows of the same genotype (Dalland hybrids), chosen in terms of achieving homogenity regarding parity, bodyweight, previous production parameters (litter size, litter average bodyweight etc.) and previous health status. The farm was selected due to previous history of Post Partum Dysgalactia Syndrome occurrence. The sows were randomly allocated to a control group (n=5), a positive control group (n=5) and a larch sawdust (n=5) group. The whole trial period was 35 days beginning at 7 days prior to farrow until the day of weaning.
1% by weight of larch sawdust was added as an anti-inflammatory ingredient to sow feed (dry period and lactation feed). […] The raw materials were well accepted at an inclusion level of 1% by weight in the diet as it was shown by previous trials performed.
Thus, during the whole trial period the animals were fed as follows:
1. Control group (99% Basic diet and 1% Corn starch) 2. Larch group (99% Basic diet and 1% Larch) 3. Positive control group (99% Basic diet and 1% Corn starch)
Moreover, the animals of the positive control group were injected a single 2 ml dosage of an antiinflammatory drug (meloxicam) at the day of parturition, while the animals of all the other groups were injected with a single 2 ml dose of normal saline at the same day.
Blood samples were collected from all trial animals at allocation day (7 days before farrowing day) and at 24 and 72 hours post farrowing from all sows for inflammation markers evaluation (serum TNF-α, plasma IL-6). Additionally the milk production index for all sows was calculated, while production and health parameters of sows and their litters were recorded.
The cytokines results were expressed as n-fold increase of cytokine expression in relation to untreated animals at allocation day.

[1] = system: 5-LOX mediated LT biosynthesis; assay: LT biosynthesis inhibition assay in activated neutrophile granulocytes, LTB4 EIA; type: cell-based, human
Procedure: 1.) LT biosynthesis inhibition assay
The assay was performed as described in [Michael Adams, Olaf Kunert, Ernst Haslinger, Rudolf Bauer: Inhibition of Leukotriene Biosynthesis by Quinolone Alkaloids from the Fruits of Evodia Rutaecarpa; Planta med. 2004 (70): 904-908] with some modifications.
Principle: Activated neutrophile granulocytes with 5-LOX activity are incubated with a defined concentration of test sample and arachidonic acid. After stopping the enzymatic reaction by addition of formic acid and centrifugation to remove cellular fragments, the produced LTB4 is quantified in the supernatant by means of an LTB4 EIA kit.
Isolation of human neutrophile granulocytes: 30 ml of venous human blood from healthy voluntary donors are collected with a Vacutainer™ (BD, Plymouth, UK) system containing a 0.219 M pre-analytical citric acid solution. The blood is immediately transferred to a falcon tube containing 20 ml of sedimentation solution (1% NaCl, 6% dextran T-500) and left to separate for 60 min at 4° C. While most of the dense erythrocytes sink into the dextran layer, the lighter blood fractions remain in the upper layer which is then removed and centrifuged at 1600 rpm (4° C., 10 min) to concentrate the leukocytes. The plasma supernatant is discarded, the pellet is resuspended in 10 ml of a wash buffer (10% CaCl2.2H2O p.a.; 0.1% anhydrous d-glucose; 0.2% MgCl2.6H2O; 0.04% KCl; 1.75% TRIS p.a.; with the pH adjusted to 7.6 with 1N HCl). After centrifugation at 1400 rpm (4° C., 10 min) and removal of the supernatant the resulting pellet is resuspended in 10 ml of a hypotonic lysis buffer (0.17% NH4Cl; 0.2% TRIS; pH 7.2) and gently shaken for 5 min at room temperature to destroy remaining erythrocytes. The suspension is submitted to another centrifugation at 1400 rpm (4° C., 5 min). The pellet is resuspended in 10 ml of wash buffer and then centrifuged at 1400 rpm (4° C., 15 min). The resulting pellet which now mainly contains neutrophile granulocytes is resuspended in 2 ml of TRIS buffer (1.75% TRIS p.a., 0.9% NaCl, pH 7.4), tested for vitality, quantified and then diluted to a cell concentration of 4500 cells/ml with TRIS buffer.
Cell vitality test: 50 μl of cell suspension and 10 μl of trypan blue solution (0.4%) (Sigma Chemical Co. Steinheim, Germany) are mixed on a glass object carrier and examined with a light microscope at 1000 fold magnification. Dead cells appear larger and darker due to absorption of trypan blue. The vitality of the cells must be >95%.
Determination of cell concentration: 10 μl of granulocyte cell suspension are dyed using 990 μl aqueous TURKS solution (Merck) and quantified in a “Neubauer” chamber (Assistent, Germany).
Sample preparation: samples are dissolved in an appropriate amount of ethanol p.a. to be added to the test mixture resulting in screening concentrations of 50 μM for pure compounds and 20 μg/ml for crude. The commercially available 5-LOX inhibitor zileuton (Sequoia Research Products Ltd., UK) is used as a positive control at a concentration of 10 μM representing its IC50 in this test system.
Incubation procedure: The incubation mixture in a 96-well flat bottom microtitre plate (Bibby Sterilin, Staffordshire, UK) consists of 265 μl leukocyte suspension, with 75.5 μM CaCl2, 0.152 μM […] (ETYA) as an inhibitor of the 12-LOX pathway, 0.642 μM Ca ionophore A23187 and 4.43 μM arachidonic acid, the substrate of the 5-LOX pathway, along with 5 μl of each test solution or 5 μl of EtOH p.a. in control wells. After incubation for 10 min at 37° C. in darkness, the reaction is stopped by addition of 20 μl of 10% formic acid. The microtitre plate is centrifuged for 15 min at 1400 rpm to separate free LTB4 from cellular particles before the supernatant is diluted 40 fold in EIA buffer and applied to a competitive LTB4 EIA kit (Assay Designs Inc.).
LTB4 EIA: The plate is incubated for 2 hours at room temperature on an orbital shaker. […]

5-lipoxygenase (5-LOX) = conditions: read-out: 5-LOX inhibitory activity IC50, cited from earlier work

## Cc1cnc(NC(=O)C2=C(O)c3ccccc3S(=O)(=O)N2C)s1 [Positive controls, meloxicam]
IL-6 and TNF-α; 24 hours PP
  Relative expression of IL6: 1.86 ± 0.92 n fold
  Relative expression of TNFα: 0.87 ± 0.29 n fold
IL-6 and TNF-α; 72 hours PP
  Relative expression of IL6: 1.08 ± 0.78 n fold
  Relative expression of TNFα: 0.98 ± 0.77 n fold

## CC(c1cc2ccccc2s1)N(O)C(N)=O (centres unmarked) [Zileuton, reference compound]
[1]
  IC50: 5 µM
[1]; Homo sapiens
  IC50: 10 µM and 1.2 µg/mL

## CC(C)C1=CC2=CC[C@@H]3[C@](C)(CCC[C@@]3(C)C(=O)O)[C@H]2CC1 [abietic acid]
5-lipoxygenase (5-LOX); Ulusu et al. 2002, isolated from cones of Abies nordmanniana ssp. equitraojani
  IC50: 29.5 ± 1.29 µM
5-lipoxygenase (5-LOX); known from the art
  IC50: ~30 µM
